| SMILES | melting point |
| --- | --- |
| COc1ccc(CNS(=O)(=O)c2cccc(-c3cccc(-c4cc(-c5ccc(C(F)(F)F)cc5)cc(C)n4)n3)c2)cc1 [Example 432, N-(4-Methoxy-benzyl)-3-[6′-methyl-4′-(4-trifluoromethyl-phenyl)-[2,2′]bipyridinyl-6-yl]-benzenesulfonamide] | 126 °C (dec.) |
| Cc1cc(-c2ccc(C(F)(F)F)cc2)cc(-c2cccc(-c3cccc(S(=O)(=O)NCc4ccc(F)cc4)c3)n2)n1 [Example 433, N-(4-Fluoro-benzyl)-3-[6′-methyl-4′-(4-trifluoromethyl-phenyl)-[2,2′]bipyridinyl-6-yl]-benzenesulfonamide] | 175 °C |
| Cc1cc(-c2ccc(C(F)(F)F)cc2)cc(-c2cccc(-c3cccc(S(=O)(=O)N4CCC(Oc5ncccn5)CC4)c3)n2)n1 [Example 435, 6-Methyl-6′-{3-[4-(pyrimidin-2-yloxy)-piperidine-1-sulfonyl]-phenyl}-4-(4-trifluoromethyl-phenyl)-[2,2′]bipyridinyl] | 134 °C (dec.) |
| Cc1cc(-c2ccc(OC(F)(F)F)cc2)cc(-c2cccc(-c3cccc(S(=O)(=O)NC(C)(C)C)c3)n2)n1 [Example 436, N-tert-Butyl-3-[6′-methyl-4′-(4-trifluoromethoxy-phenyl)-[2,2′]bipyridinyl-6-yl]-benzenesulfonamide] | 148 °C |
| Cc1cc(-c2ccc(OC(F)(F)F)cc2)cc(-c2cccc(-c3cccc(S(N)(=O)=O)c3)n2)n1 [Example 437, 3-[6′-Methyl-4′-(4-trifluoromethoxy-phenyl)-[2,2′]bipyridinyl-6-yl]-benzenesulfonamide] | 231 °C (dec.) |
| Cc1cc(-c2ccc(C(F)(F)F)c(C)c2)cc(-c2cccc(-c3cccc(S(=O)(=O)NC(C)(C)C)c3)n2)n1 [Example 438, N-tert-Butyl-3-[6′-methyl-4′-(3-methyl-4-trifluoromethyl-phenyl)-[2,2′]bipyridinyl-6-yl]-benzenesulfonamide] | 150 °C (dec.) |
| NS(=O)(=O)c1cccc(-c2cccc(-c3cc(-c4ccc(C(F)(F)F)cc4)cc(CO)n3)n2)c1 [Example 439, 3-[6′-Hydroxymethyl-4′-(4-trifluoromethyl-phenyl)-[2,2′]bipyridinyl-6-yl]-benzenesulfonamide] | 213 °C (dec.) |
| Cc1cc(-c2ccc(C(F)(F)F)c(C)c2)cc(-c2cccc(-c3cccc(S(N)(=O)=O)c3)n2)n1 [Example 440, 3-[6′-Methyl-4′-(3-methyl-4-trifluoromethyl-phenyl)-[2,2′]bipyridinyl-6-yl]-benzenesulfonamide] | > 250 °C |
| Cc1cc(-c2ccc(C#N)cc2)nc(-c2cccc(-c3cccc(S(N)(=O)=O)c3)n2)n1 [Example 442, 3-{6-[4-(4-Cyano-phenyl)-6-methyl-pyrimidin-2-yl]-pyridin-2-yl}-benzenesulfonamide] | 255 °C |
| CC(=O)NS(=O)(=O)c1cccc(-c2cccc(-c3cc(-c4ccc(C(F)(F)F)cc4)cc(C)n3)n2)c1 [Example 443, N-Acetyl-3-[6′-methyl-4′-(4-trifluoromethyl-phenyl)-[2,2′]bipyridinyl-6-yl]-benzenesulfonamide] | 244 °C |
| Cc1cc(-c2ccc(C(F)(F)F)cc2)cc(-c2cccc(-c3cccc(S(=O)(=O)NC4CCOCC4)c3)n2)n1 [Example 444, 3-[6′-Methyl-4′-(4-trifluoromethyl-phenyl)-[2,2′]bipyridinyl-6-yl]-N-(tetrahydro-pyran-4-yl)-benzenesulfonamide] | 163 °C (dec.) |
| CCNS(=O)(=O)c1cccc(-c2cccc(-c3cc(-c4ccc(C(F)(F)F)cc4)cc(C)n3)n2)c1 [Example 446, N-Ethyl-3-[6′-methyl-4′-(4-trifluoromethyl-phenyl)-[2,2′]bipyridinyl-6-yl]-benzenesulfonamide] | 135 °C |
| NS(=O)(=O)c1cccc(-c2cccc(-c3nc(-c4ccc(C(F)(F)F)c(OCC(F)(F)F)c4)cc(C(F)(F)F)n3)c2)c1 [Example 447, 3′-{4-[3-(2,2,2-Trifluoro-ethoxy)-4-trifluoromethyl-phenyl]-6-trifluoromethyl-pyrimidin-2-yl}-biphenyl-3-sulfonic acid amide] | 188 °C |
| NS(=O)(=O)c1cccc(-c2cc(-c3nc(-c4ccc(C(F)(F)F)c(OCC(F)(F)F)c4)cc(C(F)(F)F)n3)ccn2)c1 [Example 448, 3-(4-{4-[3-(2,2,2-Trifluoro-ethoxy)-4-trifluoromethyl-phenyl]-6-trifluoromethyl-pyrimidin-2-yl}-pyridin-2-yl)-benzenesulfonamide] | 211 °C |
| NS(=O)(=O)c1cccc(-c2cc(-c3nc(-c4cccc(C(F)(F)F)c4)cc(C(F)(F)F)n3)ccn2)c1 [Example 449, 3-{4-[4-Trifluoromethyl-6-(3-trifluoromethyl-phenyl)-pyrimidin-2-yl]-pyridin-2-yl}-benzenesulfonamide] | 244 °C |
| NS(=O)(=O)c1cccc(-c2cc(-c3nc(-c4ccc(C(F)(F)F)cc4F)cc(C(F)(F)F)n3)ccn2)c1 [Example 450, 3-{4-[4-(2-Fluoro-4-trifluoromethyl-phenyl)-6-trifluoromethyl-pyrimidin-2-yl]-pyridin-2-yl}-benzenesulfonamide] | 210 °C |
| NS(=O)(=O)c1ccc(-c2cc(-c3nc(-c4ccc(C(F)(F)F)cc4F)cc(C(F)(F)F)n3)ccn2)s1 [Example 451, 5-{4-[4-(2-Fluoro-4-trifluoromethyl-phenyl)-6-trifluoromethyl-pyrimidin-2-yl]-pyridin-2-yl}-thiophene-2-sulfonic acid amide] | 228 °C |
| CCOc1cc(-c2cc(C(F)(F)F)nc(-c3ccnc(-c4ccc(S(N)(=O)=O)s4)c3)n2)ccc1C(F)(F)F [Example 453, 5-{4-[4-(3-Ethoxy-4-trifluoromethyl-phenyl)-6-trifluoromethyl-pyrimidin-2-yl]-pyridin-2-yl}-thiophene-2-sulfonic acid amide] | 237.5 °C |
| CCCC(=O)NS(=O)(=O)c1cccc(-c2cccc(-c3cc(-c4ccc(C(F)(F)F)cc4)cc(C)n3)n2)c1 [Example 454, N-Butyryl-3-[6′-methyl-4′-(4-trifluoromethyl-phenyl)-[2,2′]bipyridinyl-6-yl]-benzenesulfonamide] | 188 °C |
| Cc1cc(-c2ccc(C(F)(F)F)cc2)cc(-c2cccc(-c3cccc(S(=O)(=O)NC(=O)C(C)C)c3)n2)n1 [Example 455, N-Isobutyryl-3-[6′-methyl-4′-(4-trifluoromethyl-phenyl)-[2,2′]bipyridinyl-6-yl]-benzenesulfonamide] | 190 °C |
| NS(=O)(=O)c1cccc(-c2cccc(-c3nc(-c4ccc(C(F)(F)F)cc4)cc(C(F)F)n3)c2)c1 [Example 456, 3′-[4-Difluoromethyl-6-(4-trifluoromethyl-phenyl)-pyrimidin-2-yl]-biphenyl-3-sulfonic acid amide] | 204 °C |
| NS(=O)(=O)c1cccc(-c2cc(-c3nc(-c4ccc(C(F)(F)F)cc4)cc(C(F)F)n3)ccn2)c1 [Example 457, 3-{4-[4-Difluoromethyl-6-(4-trifluoromethyl-phenyl)-pyrimidin-2-yl]-pyridin-2-yl}-benzenesulfonamide] | 233.5 °C |
| NS(=O)(=O)c1ccc(-c2cc(-c3nc(-c4ccc(C(F)(F)F)cc4)cc(C(F)F)n3)ccn2)s1 [Example 458, 5-{4-[4-Difluoromethyl-6-(4-trifluoromethyl-phenyl)-pyrimidin-2-yl]-pyridin-2-yl}-thiophene-2-sulfonic acid amide] | 242 °C |
| NS(=O)(=O)c1ccc(-c2cccc(-c3nc(-c4ccc(C(F)(F)F)cc4)cc(C(F)F)n3)c2)s1 [Example 459, 5-{3-[4-Difluoromethyl-6-(4-trifluoromethyl-phenyl)-pyrimidin-2-yl]-phenyl}-thiophene-2-sulfonic acid amide] | 240.5 °C |
| NS(=O)(=O)c1cccc(-c2cccc(-c3nc(-c4ccc(C(F)(F)F)c(F)c4)cc(C(F)(F)F)n3)c2)c1 [Example 460, 3′-[4-(3-Fluoro-4-trifluoromethyl-phenyl)-6-trifluoromethyl-pyrimidin-2-yl]-biphenyl-3-sulfonic acid amide] | 227.5 °C |
| NS(=O)(=O)c1ccc(-c2cccc(-c3nc(-c4ccc(C(F)(F)F)c(F)c4)cc(C(F)(F)F)n3)c2)s1 [Example 461, 5-{3-[4-(3-Fluoro-4-trifluoromethyl-phenyl)-6-trifluoromethyl-pyrimidin-2-yl]-phenyl}-thiophene-2-sulfonic acid amide] | 213.5 °C |
| COCC(=O)NS(=O)(=O)c1cccc(-c2cccc(-c3cc(-c4ccc(C(F)(F)F)cc4)cc(C)n3)n2)c1 [Example 462, N-(2-Methoxy-acetyl)-3-[6′-methyl-4′-(4-trifluoromethyl-phenyl)-[2,2′]bipyridinyl-6-yl]-benzenesulfonamide] | 188 °C |

From patent US8183262B2, “Pyridine derivatives as mGluR2 antagonists” (Hoffmann-La Roche Inc., priority 2007, dated 2012)
